Reference: ChEMBL document CHEMBL5344403, “Discovery and evaluation of phenacrylanilide derivatives as novel potential anti-liver fibrosis agents” (Eur J Med Chem, 2022)
The source made the active and inactive calls. No cut-off for these calls is given here.

Assays:
[1] = test system: Mus musculus; assay: Anti-hepatic fibrosis activity in CCL4-induced C57BL/6J mouse hepatic fibrosis model assessed as decrease in serum CHO level at 15 to 30 mg/kg, po measured for 3 weeks; assay type: functional, organism-based; settings: dose 15-30 mg/kg
[2] = test system: Mus musculus; assay: Anti-hepatic fibrosis activity in CCL4-induced C57BL/6J mouse hepatic fibrosis model assessed as decrease in serum AST level at 15 to 30 mg/kg, po measured for 3 weeks; assay type: functional, organism-based; settings: dose 15-30 mg/kg
[3] = test system: Mus musculus; assay: Anti-hepatic fibrosis activity in CCL4-induced C57BL/6J mouse hepatic fibrosis model assessed as improvement in inflammatory cell infiltration at 15 to 30 mg/kg, po measured for 3 weeks by H and E staining based analysis; assay type: functional, organism-based; settings: dose 15-30 mg/kg
[4] = Toxicity in CCL4-induced C57BL/6J mouse assessed as effect on uric acid level at 15 to 30 mg/kg, po; assay type: organism-based; settings: in vivo, dose 15-30 mg/kg
[5] = Antiproliferative activity against human LX2 cells assessed as cell survival rate at 20 uM incubated for 72 hrs by CCK-8 assay; assay type: toxicity, cell-based; settings: LX-2 cells, read-out: Activity
[6] = test system: Mus musculus; assay: Anti-hepatic fibrosis activity in CCL4-induced C57BL/6J mouse hepatic fibrosis model assessed as decrease in collagen deposition in liver at 15 to 30 mg/kg, po measured for 3 weeks by Masson's trichome staining based analysis; assay type: functional, organism-based; settings: dose 15-30 mg/kg
[7] = test system: Mus musculus; assay: Antifibrotic activity against CCL4-induced C57BL/6J mouse hepatic fibrosis model assessed as reduction in CD69/CD4 in Th1 cell cells at 15 mg/kg, po measured for 3 weeks by flow cytometry analysis relative to control; assay type: functional; set-up: scale not given: the % may be the effect or the level left
[8] = test system: Mus musculus; assay: Anti-hepatic fibrosis activity in CCL4-induced C57BL/6J mouse hepatic fibrosis model assessed as reduction in liver injury at 15 to 30 mg/kg, po measured for 3 weeks; assay type: functional, organism-based; settings: dose 15-30 mg/kg
[9] = Antiproliferative activity against human LO2 cells assessed as inhibition of cell growth incubated for 72 hrs by CCK-8 assay; assay type: toxicity, cell-based; settings: LO2 (L02) cells
[10] = test system: Mus musculus; assay: Anti-hepatic fibrosis activity in CCL4-induced C57BL/6J mouse hepatic fibrosis model assessed as reduction in liver weight coefficient at 15 to 30 mg/kg, po measured for 3 weeks; assay type: functional, organism-based; settings: dose 15-30 mg/kg
[11] = Toxicity in CCL4-induced po dosed C57BL/6J mouse assessed as inflammatory cell infiltration in heart at 15 to 30 mg/kg, po by H and E staining based analysis; assay type: organism-based; settings: in vivo, dose 15-30 mg/kg
[12] = test system: Mus musculus; assay: Antifibrotic activity against CCL4-induced C57BL/6J mouse hepatic fibrosis model assessed as reduction in F4/80+CD11b+ in macrophage at 15 mg/kg, po measured for 3 weeks by flow cytometry analysis relative to control; assay type: functional; set-up: scale not given: the % may be the effect or the level left
[13] = test system: Mus musculus; assay: Antifibrotic activity against CCL4-induced C57BL/6J mouse hepatic fibrosis model assessed as reduction in CD11b/Gr-1 in MDSC cells at 30 mg/kg, po measured for 3 weeks by flow cytometry analysis relative to control; assay type: functional; set-up: scale not given: the % may be the effect or the level left
[14] = test system: Mus musculus; assay: Anti-hepatic fibrosis activity in CCL4-induced C57BL/6J mouse hepatic fibrosis model assessed as downregulation of collagen level in liver at 30 mg/kg, po measured for 3 weeks by immunohistochemical analysis; assay type: functional, organism-based
[15] = Toxicity in CCL4-induced po dosed C57BL/6J mouse assessed as inflammatory cell infiltration in lung at 15 to 30 mg/kg, po by H and E staining based analysis; assay type: organism-based; settings: in vivo, dose 15-30 mg/kg
[16] = test system: Mus musculus; assay: Anti-hepatic fibrosis activity in CCL4-induced C57BL/6J mouse hepatic fibrosis model assessed as decrease in serum ALT level at 15 to 30 mg/kg, po measured for 3 weeks; assay type: functional, organism-based; settings: dose 15-30 mg/kg
[17] = test system: Mus musculus; assay: Anti-hepatic fibrosis activity in CCL4-induced C57BL/6J mouse hepatic fibrosis model assessed as downregulation of TGF-beta1 mRNA expression at 30 mg/kg, po measured for 3 weeks by qRT-PCR analysis; assay type: functional, organism-based
[18] = test system: Mus musculus; assay: Antifibrotic activity against CCL4-induced C57BL/6J mouse hepatic fibrosis model assessed as reduction in F4/80+CD11b+ in macrophage at 30 mg/kg, po measured for 3 weeks by flow cytometry analysis relative to control; assay type: functional; set-up: scale not given: the % may be the effect or the level left
[19] = Toxicity in CCL4-induced C57BL/6J mouse assessed as effect on creatinine level at 15 to 30 mg/kg, po; assay type: organism-based; settings: in vivo, dose 15-30 mg/kg
[20] = test system: Mus musculus; assay: Antifibrotic activity against CCL4-induced C57BL/6J mouse hepatic fibrosis model assessed as reduction in CD69/CD4 in Th1 cell cells at 30 mg/kg, po measured for 3 weeks by flow cytometry analysis relative to control; assay type: functional; set-up: scale not given: the % may be the effect or the level left
[21] = test system: Mus musculus; assay: Anti-hepatic fibrosis activity in CCL4-induced C57BL/6J mouse hepatic fibrosis model assessed as downregulation of alpha-SMA level at 30 mg/kg, po measured for 3 weeks by Western blot analysis; assay type: functional, organism-based
[22] = test system: Mus musculus; assay: Inhibition of epithelial mesenchymal transition in CCL4-induced C57BL/6J mouse hepatic fibrosis model assessed as decrease in vimentin protein expression at 15 to 30 mg/kg, po measured for 3 weeks; assay type: functional, organism-based; settings: dose 15-30 mg/kg
[23] = test system: Mus musculus; assay: Anti-hepatic fibrosis activity in CCL4-induced C57BL/6J mouse hepatic fibrosis model assessed as improvement in liver structural damage at 15 to 30 mg/kg, po measured for 3 weeks by H and E staining based analysis; assay type: functional, organism-based; settings: dose 15-30 mg/kg
[24] = test system: Mus musculus; assay: Antifibrotic activity against CCL4-induced C57BL/6J mouse hepatic fibrosis model assessed as reduction in CD69/CD8 in […] cell cells at 15 mg/kg, po measured for 3 weeks by flow cytometry analysis relative to control; assay type: functional; set-up: scale not given: the % may be the effect or the level left
[25] = Toxicity in CCL4-induced C57BL/6J mouse assessed as effect on body weight at 15 to 30 mg/kg, po; assay type: organism-based; settings: in vivo, dose 15-30 mg/kg
[26] = test system: Mus musculus; assay: Anti-hepatic fibrosis activity in CCL4-induced C57BL/6J mouse hepatic fibrosis model assessed as downregulation of alpha-SMA mRNA expression at 30 mg/kg, po measured for 3 weeks by qRT-PCR analysis; assay type: functional, organism-based
[27] = Toxicity in CCL4-induced po dosed C57BL/6J mouse assessed as inflammatory cell infiltration in spleen at 15 to 30 mg/kg, po by H and E staining based analysis; assay type: organism-based; settings: in vivo, dose 15-30 mg/kg
[28] = test system: LX-2; assay: Antifibrotic activity against TGF-beta1 induced human LX2 cells assessed as reduction of alpha-SMA expression at 20 uM pretreated with TGF-beta1 for 1 hr followed by compound addition and measured after 24 hrs by Western blot analysis; assay type: functional, cell-based
[29] = test system: Mus musculus; assay: Inhibition of epithelial mesenchymal transition in CCL4-induced C57BL/6J mouse hepatic fibrosis model assessed as […] in N-cadherin protein expression at 15 to 30 mg/kg, po measured for 3 weeks; assay type: functional, organism-based; settings: dose 15-30 mg/kg
[30] = Toxicity in CCL4-induced po dosed C57BL/6J mouse assessed as decrease in spleen weight coefficient; assay type: organism-based; settings: in vivo, dose 15-30 mg/kg
[31] = test system: LX-2; assay: Inhibition of TGF-beta1-induced human LX2 activation at 20 uM pretreated with TGF-beta1 for 1 hr followed by compound addition and measured after 72 hrs by CCK-8 assay relative to control; assay type: functional
[32] = Toxicity in CCL4-induced C57BL/6J mouse assessed as effect on urea level at 15 to 30 mg/kg, po; assay type: organism-based; settings: in vivo, dose 15-30 mg/kg
[33] = test system: Mus musculus; assay: Anti-hepatic fibrosis activity in CCL4-induced C57BL/6J mouse hepatic fibrosis model assessed as downregulation of collagen level at 30 mg/kg, po measured for 3 weeks by Western blot analysis; assay type: functional, organism-based
[34] = test system: Mus musculus; assay: Antifibrotic activity against CCL4-induced C57BL/6J mouse hepatic fibrosis model assessed as reduction in CD11b/Gr-1 in MDSC cells at 15 mg/kg, po measured for 3 weeks by flow cytometry analysis relative to control; assay type: functional; set-up: scale not given: the % may be the effect or the level left
[35] = test system: Mus musculus; assay: Anti-hepatic fibrosis activity in CCL4-induced C57BL/6J mouse hepatic fibrosis model assessed as downregulation of collagen mRNA expression at 30 mg/kg, po measured for 3 weeks by qRT-PCR analysis; assay type: functional, organism-based
[36] = test system: Mus musculus; assay: Anti-hepatic fibrosis activity in CCL4-induced C57BL/6J mouse hepatic fibrosis model assessed as decrease in collagen deposition in liver at 15 to 30 mg/kg, po measured for 3 weeks by sirius red staining based analysis; assay type: functional, organism-based; settings: dose 15-30 mg/kg
[37] = test system: Mus musculus; assay: Anti-hepatic fibrosis activity in CCL4-induced C57BL/6J mouse hepatic fibrosis model assessed as decrease in serum TG level at 15 to 30 mg/kg, po measured for 3 weeks; assay type: functional, organism-based; settings: dose 15-30 mg/kg
[38] = test system: Mus musculus; assay: Anti-hepatic fibrosis activity in CCL4-induced C57BL/6J mouse hepatic fibrosis model assessed as downregulation of alpha-SMA level in liver at 30 mg/kg, po measured for 3 weeks by immunohistochemical analysis; assay type: functional, organism-based
[39] = test system: Mus musculus; assay: Antifibrotic activity against CCL4-induced C57BL/6J mouse hepatic fibrosis model assessed as reduction in CD69/CD8 in […] cell cells at 30 mg/kg, po measured for 3 weeks by flow cytometry analysis relative to control; assay type: functional; set-up: scale not given: the % may be the effect or the level left
[40] = test system: LX-2; assay: Antifibrotic activity against TGF-beta1 induced human LX2 cells assessed as reduction of fibronectin expression at 20 uM pretreated with TGF-beta1 for 1 hr followed by compound addition and measured after 24 hrs by Western blot analysis; assay type: functional, cell-based

COc1ccc(/C=C/C(=O)Nc2cccc(C(=O)NC3CCCC3)c2)cc1
Activity [1]: Active
Activity [2]: Active
Activity [3]: Active
Activity [4]: Non-Toxic
viability at 72 h, 20 µM [5]: 77.5%
Activity [6]: Active
Activity [7]: 1.21%
Activity [8]: Active
IC50 at 72 h [9]: 105 µM
Activity [10]: Active
Activity [11]: Non-Toxic
Activity [12]: 5.11%
Activity [13]: 1.86%
Activity [14]: Active
Activity [15]: Non-Toxic
Activity [16]: Active
Activity [17]: Active
Activity [18]: 4.8%
Activity [19]: Non-Toxic
Activity [20]: 1.19%
Activity [21]: Active
Activity [22]: Active
Activity [23]: Active
Activity [24]: 1.54%
Activity [25]: Non-Toxic
Activity [26]: Active
Activity [27]: Non-Toxic
Activity [28]: Active
inhibition [29]: Active
Activity [30]: Dose-Dependent Effect
inhibition at 20 µM [31]: 30.3%
Activity [32]: Non-Toxic
Activity [33]: Active
Activity [34]: 1.9%
Activity [35]: Active
Activity [36]: Active
Activity [37]: Active
Activity [38]: Active
Activity [39]: 1.45%
Activity [40]: Active
